# Experiment: Fluorescence lifetime analysis (phasor-FLIM) of DOX organization states and Doxoves®
# Format: physicochemical
# Excerpt: The procedure was applied to Doxoves® as follows: • 1) Based on previous knowledge, at least three different supramolecular organizations of DOX molecules are supposed to contribute to the overall nature of Doxoves® nanocarriers: crystallized DOX, free DOX, and DOX eventually associated with the nanocarrier surface, i.e. with lipids. These three forms are defined here as standards. • 2) The three standards identified at step 1 are obtained and measured. As a preliminary step, each standard is produced and dissolved in a buffer that is the same as that of the test substance. In the present case, manufacturer's indications were followed to produce the correct buffer composition. In general, substances having an impact on lifetime analysis of the test substance, e.g. Doxoves®, shall be also present in the standard substances. First, the phasor signature of crystalized DOX and free-in-solution DOX are measured: two mono-exponential lifetimes are obtained: 0.2 ns for the crystal and 1 ns for free DOX, respectively. […] Then, by spin-coating simil-Doxoves® nanoparticles on a glass surface. This procedure destroys mechanically the liposomal particles and recovers the liposomal membranes on the glass. […] It is important to note that lifetime measuring conditions, e.g. temperature, pH etc., shall be the same for measures on the test substance and measures on the standard substances. • 5) Doxoves® lifetime data are analysed by the phasor approach. In more detail, the phasor is calculated by using a dedicated routine in the SimFCS software (Laboratory for Fluorescence Dynamics, University of California, Irvine). […] Simple algebraic rules are adopted to extract quantitatively the relative contribution (fractional intensity) of each standard (by a dedicated routine in SimFCS software). • It may still be under question whether there may be more than three organization states, e.g. four defining a trapezoidal shape within the universal circle and circumscribing the location of the test substance lifetime decay within the universal circle. A final control experiment was thus performed to corroborate the hypothesis that only three standard components (and NOT more than three) contribute to the overall organization of encapsulated DOX. In brief, the lifetime of simil-Doxoves® in solution is measured. If only three components contribute to Doxoves® organization, simil-Doxoves® is expected to be a linear combination of just free DOX and DOX associated to nanocarrier lipids, thus lying along the segment that connects these two states.
# [1] = within tested nanoparticles, FIG. 4, phasor plot triangle
compound,measurement,setting,value
"COc1cccc2c1C(=O)c1c(O)c3c(c(O)c1C2=O)C[C@@](O)(C(=O)CO)C[C@@H]3O[C@H]1C[C@H](N)[C@H](O)[C@H](C)O1 [DOX, doxorubicin]","fluorescence lifetime of free DOX in solution, mono-exponential","pure standard, free in water/buffer, phasor approach",1 ns
same,"fluorescence lifetime of crystalized DOX (purified rod-shaped crystals), mono-exponential","pure standard, excitation 470 nm, emission 500-650 nm, phasor approach",0.2 ns
same,fractional intensity of DOX conjugate with the lipids,[1],46%
same,fractional intensity of DOX organized into nanorod crystals,[1],36%
same,fractional intensity of free DOX,[1],18%

# From patent US11913882B2, “Determination of the supramolecular organization of encapsulated molecules by luminescence lifetime analysis” (SCUOLA NORMALE SUPERIORE, priority 2020, dated 2024)
